From patent publication US11339171B2, “MDM2 inhibitors” (Gan & Lee Pharmaceuticals, priority 2017, dated 2022)
Values joined by “and” are separate entries in the source; they are usually repeats but may differ in a detail not shown here. Equal entries are not always repeated. Where two headings read alike, the source gives them in different places.

Legend:
MDM2 = target: T1, MDM2 (Homo sapiens, UniProt Q00987); experiment: Inhibition test of MDM2-P53 (GST-MDM2, Biotin-P53, Anti-GST-Tb, SA-XL665); type: binding; settings: labels are Example numbers; the compounds with S-configuration are meant
T1 construct: made in house
T1 sequence (Q00987 whole entry): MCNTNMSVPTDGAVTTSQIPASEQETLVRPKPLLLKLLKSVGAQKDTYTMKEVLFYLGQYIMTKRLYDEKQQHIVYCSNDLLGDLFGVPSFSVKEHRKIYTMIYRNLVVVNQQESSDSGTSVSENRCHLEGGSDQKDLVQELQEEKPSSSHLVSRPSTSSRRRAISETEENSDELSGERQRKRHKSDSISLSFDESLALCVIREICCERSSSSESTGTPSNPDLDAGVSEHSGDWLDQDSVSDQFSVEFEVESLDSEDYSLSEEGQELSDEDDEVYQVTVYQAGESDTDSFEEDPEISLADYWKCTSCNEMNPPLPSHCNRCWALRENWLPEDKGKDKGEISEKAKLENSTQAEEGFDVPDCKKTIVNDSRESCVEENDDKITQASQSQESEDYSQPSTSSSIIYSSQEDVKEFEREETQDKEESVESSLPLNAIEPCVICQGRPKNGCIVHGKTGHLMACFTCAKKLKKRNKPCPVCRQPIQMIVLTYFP
Description: Experimental purpose: To determine the inhibitory activities of the compounds of the present invention on MDM2.
The present experiment uses the following assay methods/instruments/reagents:
Buffer: 1×PBS+0.1% BSA+5 mM DTT; MDM2 Buffer: Buffer+1 mM AEBSF
GST-MDM2: The final concentration is 4 nM, and it is required to formulate a 20 nM (5×) solution. A mother liquor is diluted by 3500 folds, wherein the mother liquor is 10-fold diluted first, and then 350-fold diluted.
Anti-GST-Tb: The final concentration is 2×, and a mother liquor is diluted by 50 folds.
MIX: GST-MDM2, Biotin-P53, SA-XL665 and Anti-GST-Tb were mixed according to a ratio of 4:4:5:5.
Sample: Preparation of a sample (10 mM in DMSO) solution: a. 3 μL sample+7 μL DMSO+20 μL DMSO were formulated to give an initial concentration of 1 mM and mixed well; b. in plate 1, twelve 5-fold serial dilutions (sequentially prepared by adding 10 μL of the last sample to 40 μL DMSO) were prepared and mixed well, individually; c. plate 2 was taken, 45 μL of Buffer was added to each well, and 5 μL of dilution at each concentration was taken from plate 1 and added to the corresponding well in plate 2 (the concentration in well 1 was 100 μM), and mixed well.
1. 18 μL of MIX was added to a 384-well plate, and centrifugation was performed at 4500 rpm for 5 min.
2. 2 μL of sample was added correspondingly to each well, the resultant was centrifuged at 25° C. and 4500 rpm for 5 min, and shaked at 25° C. for 90 min on a shaker.
Readings were obtained from the Microplate reader, and data was processed by Graphpad Prism 6.0.

[1] = Pharmacokinetics in ICR mice after intravenous and intragastric administration; type: in vivo; settings: for MRT last: read-out: MRT(0-t); for MRT inf: read-out: MRT(0-∞); for Tmax: read-out: Tmax; for Vd: read-out: Vz; for half-life: read-out: t1/2 (converted)
Description: Experimental Example 3 Determination of the Pharmacokinetics of the Mdm2 Inhibitors of the Present Invention in Mice
ICR mice were used as the test animals, and the concentrations of the drugs in plasma of mice at different time points after intravenous administration and intragastric administration of the representative compounds were measured by a LC/MS/MS method, so as to study the pharmacokinetic behavior of the compounds of the present invention in mice and evaluate the pharmacokinetic characteristics thereof.
Some compounds prepared in Examples 1-180 of the present invention.
The control drug HDM201 was prepared by the method disclosed in patent No. CN104203952A.
Healthy adult ICR mice, male, 6-9 weeks old, weighing 20-30 g, purchased from Shanghai Xipuer-Bikai Laboratory Animal Co., Ltd., Animal Production License No.: SCXK (HU) 2013-0016
3.2.3 Preparation of Test Drugs
Intragastric or intravenous administration: an appropriate amount of sample was weighed, dissolved in 5% DMSO+40% PEG400+55% (10% HP-β-CD in Saline) to prepare a 0.5 mg/ml solution for intragastric or intravenous administration.
3.2.4 Administration of Test Drugs
Intravenous administration: for each test compound, 3 male ICR mice were administered intravenously at a dose of 2 mg/kg and an administration volume of […] after fasting overnight.
Intragastric administration: for each test compound, 3 male ICR mice were administered intragastrically at a dose of 5 mg/kg and an administration volume of […] after fasting overnight.
3.3 Experimental Operation
The collected plasma was stored at −80° C. before analysis. The plasma sample was analyzed by LC-MS/MS, and the sample was pretreated by protein precipitation method. The linear range of sample analysis was 1 to 2000 ng/ml. The lowest quantification limit was 1 ng/mL. WinNonlin (Pharsight, USA) was used to calculate the following pharmacokinetic parameters: area under the curve AUC(0-t), area under the curve AUC(0-∞), half-life t1/2, retention time MRT(0-∞), blood drug concentration Cmax, time taken to reach the peak blood drug concentration Tmax, bioavailability F, apparent volume of distribution Vz, and clearance rate CL.

[2] = IV 2 mg/kg, ICR mice, individual animal, 2 mg/kg
[3] = PO 5 mg/kg, ICR mice, individual animal, 5 mg/kg
[4] = male, ICR, mouse, plasma, iv, 2 mg/kg, IV 2 mg/kg, ICR mice, Mean
[5] = male, ICR, mouse, plasma, iv, 2 mg/kg, IV 2 mg/kg, ICR mice, individual animal
[6] = male, ICR, mouse, plasma, po, 5 mg/kg, PO 5 mg/kg, ICR mice, Mean
[7] = male, ICR, mouse, plasma, po, 5 mg/kg, PO 5 mg/kg, ICR mice, individual animal

COc1ccncc1-c1nc2c(n1C(C)C)C1(C(=O)Nc3cc(Cl)ccc31)N(c1cc(Cl)ccc1C)C2=O (stereo not shown) [Example 18, 6-chloro-5′-(5-chloro-2-methylphenyl)-3′-isopropyl-2′-(4-methoxypyridin-3-yl)-3′H-spiro[dihydroindole-3,4′-pyrrolo[3,4-d]imidazole]-2,6′(5′H)-dione]
inhibitory effect on MDM2 compared with positive control compound HDM201 (MDM2): better

CNC(=O)c1ccc(OC)c(-c2nc3c(n2C(C)C)C2(C(=O)Nc4cc(Cl)ccc42)N(c2cc(Cl)ccc2C)C3=O)c1 (stereo not shown) [Example 21, 3-(6-chloro-5′-(5-chloro-2-methylphenyl)-3′-isopropyl-2,6′-dioxo-5′,6′-dihydro-3′H-spiro[dihydroindole-3,4′-pyrrolo[3,4-d]imidazole]-2′-yl)-4-methoxy-N-methylbenzamide]
inhibitory effect on MDM2 compared with positive control compound HDM201 (MDM2): better

COc1ccc(C(N)=O)cc1-c1nc2c(n1C(C)C)C1(C(=O)Nc3cc(Cl)ccc31)N(c1cc(Cl)ccc1C)C2=O (stereo not shown) [Example 29, 3-(6-chloro-5′-(5-chloro-2-methylphenyl)-3′-isopropyl-2,6′-dioxo-5′,6′-dihydro-3′H-spiro[dihydroindole-3,4′-pyrrolo[3,4-d]imidazole]-2′-yl)-4-methoxybenzamide]
inhibitory effect on MDM2 compared with positive control compound HDM201 (MDM2): better

COc1ncc(-c2nc3c(n2C(C)C)C2(C(=O)Nc4cc(Cl)ccc42)N(c2cc(Cl)ccc2F)C3=O)c(OC)n1 (stereo not shown) [Example 44, 6-chloro-5′-(5-chloro-2-fluorophenyl)-2′-(2,4-dimethoxypyrimidin-5-yl)-3′-isopropyl-3′H-spiro[dihydroindole-3,4′-pyrrolo[3,4-d]imidazole]-2,6′(5′H)-dione]
inhibitory effect on MDM2 compared with positive control compound HDM201 (MDM2): better

COc1ncc(-c2nc3c(n2C(C)C)C2(C(=O)Nc4cc(Cl)ccc42)N(c2ccc(OC)c(Cl)c2)C3=O)c(OC)n1 (stereo not shown) [Example 48, 6-chloro-5′-(3-chloro-4-methoxyphenyl)-2′-(2,4-dimethoxypyrimidin-5-yl)-3′-isopropyl-3′H-spiro[dihydroindole-3,4′-pyrrolo[3,4-d]imidazole]-2,6′(5′H)-dione]
inhibitory effect on MDM2 compared with positive control compound HDM201 (MDM2): better

COc1ccc(-c2nc3c(n2C(C)C)C2(C(=O)Nc4cc(Cl)ccc42)N(c2cc(Cl)c(=O)n(C)c2)C3=O)c(OC)c1 (stereo not shown) [Example 52, 6-chloro-5′-(5-chloro-1-methyl-6-oxo-1,6-dihydropyridin-3-yl)-2′-(2,4-dimethoxyphenyl)-3′-isopropyl-3′H-spiro[dihydroindole-3,4′-pyrrolo[3,4-d]imidazole]-2,6′(5′H)-dione]
inhibitory effect on MDM2 compared with positive control compound HDM201 (MDM2): better

COc1ncc(-c2nc3c(n2C(C)C)[C@H](c2ccc(Cl)cc2)N(c2cc(Cl)cn(C)c2=O)C3=O)c(OC)n1 [HDM201, reference compound]
AUC(0-t) [1, 2]: 520.23 ng·h/mL and 622.13 ng·h/mL
AUC(0-∞) [1, 2]: 600.29 ng·h/mL and 713.62 ng·h/mL
CL [1, 2]: 55.5285 mL/min/kg and 46.7105 mL/min/kg
Cmax [1, 2]: 459.85 ng/mL and 585.03 ng/mL
MRT(0-t) [1, 2]: 40.8 min and 39.6 min
MRT(0-∞) [1, 2]: 58.8 min and 57.6 min
Vz [1, 2]: 3.23181 L/kg and 2.7173 L/kg
t1/2 [1, 2]: 40.2 min
F* ([1]; PO 5 mg/kg vs IV 2 mg/kg, ICR mice): 78.76%
AUC(0-t) [1, 3]: 797.19 ng·h/mL and 1522.78 ng·h/mL
AUC(0-∞) [1, 3]: 818.45 ng·h/mL and 1539.76 ng·h/mL
Cmax [1, 3]: 584.08 ng/mL and 715.01 ng/mL
MRT(0-t) [1, 3]: 62.4 min and 109 min
MRT(0-∞) [1, 3]: 69 min and 115 min
t1/2 [1, 3]: 44.4 min and 74.4 min
AUC(0-inf) [1, 4]: 644 ng·h/mL
clearance [1, 4]: 52 mL/min/kg
AUC(0-t) ([1]; male, ICR, mouse, plasma, iv, 2 mg/kg, IV 2 mg/kg, ICR mice, Mean, read-out: AUC(0-t)): 572 ng·h/mL
Cmax ([1]; male, ICR, mouse, plasma, iv, 2 mg/kg, IV 2 mg/kg, ICR mice, Mean, read-out: Cmax): 550 ng/mL
MRT last [1, 4]: 38.4 min
MRT inf [1, 4]: 54 min
Tmax [1, 4]: 4.98 min
Vd [1, 4]: 2.8 L/kg
half-life [1, 4]: 37.2 min
AUC(0-inf) [1, 5]: 619 ng·h/mL
clearance [1, 5]: 53.8 mL/min/kg
AUC(0-t) ([1]; male, ICR, mouse, plasma, iv, 2 mg/kg, IV 2 mg/kg, ICR mice, individual animal, read-out: AUC(0-t)): 574 ng·h/mL
Cmax ([1]; male, ICR, mouse, plasma, iv, 2 mg/kg, IV 2 mg/kg, ICR mice, individual animal, read-out: Cmax): 606 ng/mL
MRT last [1, 5]: 35.4 min
MRT inf [1, 5]: 45 min
Tmax [1, 5]: 4.8 min
Vd [1, 5]: 2.46 L/kg
half-life [1, 5]: 31.8 min
AUC(0-inf) [1, 6]: 1150 ng·h/mL
AUC(0-t) ([1]; male, ICR, mouse, plasma, po, 5 mg/kg, PO 5 mg/kg, ICR mice, Mean, read-out: AUC(0-t)): 1130 ng·h/mL
Cmax ([1]; male, ICR, mouse, plasma, po, 5 mg/kg, PO 5 mg/kg, ICR mice, Mean, read-out: Cmax): 569 ng/mL
MRT last [1, 6]: 96 min
MRT inf [1, 6]: 103 min
Tmax [1, 6]: 30 min
half-life [1, 6]: 66.6 min
AUC(0-inf) [1, 7]: 1080 ng·h/mL
AUC(0-t) ([1]; male, ICR, mouse, plasma, po, 5 mg/kg, PO 5 mg/kg, ICR mice, individual animal, read-out: AUC(0-t)): 1060 ng·h/mL
Cmax ([1]; male, ICR, mouse, plasma, po, 5 mg/kg, PO 5 mg/kg, ICR mice, individual animal, read-out: Cmax): 409 ng/mL
MRT last [1, 7]: 116 min
MRT inf [1, 7]: 125 min
Tmax [1, 7]: 30 min
half-life [1, 7]: 80.4 min
AUC(0-t) ([1]; male, ICR, mouse, plasma, po, 5 mg/kg, oral intragastric administration 5 mg/kg, read-out: AUC0-t): 1130 ng·h/mL
bioavailability ([1]; male, ICR, mouse, plasma, oral intragastric administration 5 mg/kg, read-out: bioavailability): 78.8%
